# Results reported in patent US7432260B2, “Pyrimidine compounds” (Cyclacel Limted, priority 2002, dated 2008).
# pIC50: −log10 of the molar value.
# How the values were obtained:
# HT29 = assay: 72-h MTT cytotoxicity assay HT29; assay type: cell-based; conditions: Homo sapiens, HT-29, 72 h, Table 4
# Procedure, shortened: (§1)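 Seed cells per doubling time and incubate overnight at 37° C. Add 1/3 dilution series of compound in media, triplicate, 72 h at 37° C. Wash with PBS, add MTT for 4 h in the dark, wash again, solubilise dye in DMSO.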
# CDK9/cyclin T1 = CDK9/cyclin T1 (Homo sapiens, UniProt P50750); assay: CDK9 assay; assay type: biochemical; conditions: Table 2; read-out: Kinase Inhibition IC50 CDK9 cyclin T1
# Procedure, shortened: (§2)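 Recombinant human CDK7/cyclin H or CDK9/cyclin T1 (0.5–2 μg) phosphorylated biotinylated CTD heptapeptide-repeat substrate for 45 min at 30 °C in MOPS pH 7.2 buffer with 15 mM MgCl2 and 100 μM ATP plus [γ-32P]ATP. After avidin capture on P81 filters and phosphoric acid washes, 32P incorporation was counted by scintillation.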
# CDK2/cyclin A = CDK2/cyclin A (Homo sapiens, UniProt P24941); assay: Kinase assay CDK2/cyclin A; assay type: biochemical; conditions: Table 2; read-out: Kinase Inhibition IC50 CDK2 cyclin A
# Procedure, shortened: (§3)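 Enzyme + substrate in β-glycerophosphate/MOPS/EGTA/DTT buffer, pH 7.4 → Mg/ATP (100 μM ATP, γ-32P) start → 30° C incubation → ice stop → P81 or GF/C filtration, H3PO4 wash → scintillation count.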
# Saos-2 = assay: 72-h MTT cytotoxicity assay Saos-2; assay type: cell-based; conditions: Homo sapiens, SAOS-2, 72 h, Table 4
# Procedure, shortened: as §1
# CDK7/cyclin H = CDK7/cyclin H (Homo sapiens, UniProt P50613); assay: CDK7 assay; assay type: biochemical; conditions: Table 2; read-out: Kinase Inhibition IC50 CDK7 cyclin H
# Procedure, shortened: as §2
# CDK4/cyclin D1 = CDK4/cyclin D1 (Homo sapiens, UniProt P11802); assay: Kinase assay CDK4/cyclin D1; assay type: biochemical; conditions: Table 2; read-out: Kinase Inhibition IC50 CDK4 cyclin D1
# Procedure, shortened: as §3
# CDK2/cyclin E = CDK2/cyclin E (Homo sapiens, UniProt P24941); assay: Kinase assay CDK2/cyclin E; assay type: biochemical; conditions: Table 2; read-out: Kinase Inhibition IC50 CDK2 cyclin E
# Procedure, shortened: as §3
# A549 = assay: 72-h MTT cytotoxicity assay A549; assay type: cell-based; conditions: Homo sapiens, A549, 72 h, Table 4
# Procedure, shortened: as §1
# CDK1/cyclin B = CDK1/cyclin B (Homo sapiens, UniProt P06493); assay: Kinase assay CDK1/cyclin B; assay type: biochemical; conditions: Table 2; read-out: Kinase Inhibition IC50 CDK1 cyclin B
# Procedure, shortened: as §3
# GSK-3β = GSK-3β (Homo sapiens, UniProt P49841); assay: Kinase assay GSK-3β; assay type: biochemical; conditions: Table 2; read-out: Kinase Inhibition IC50 GSK-3β
# Method: (§4) Kinase assays. […] This was achieved by measurement of incorporation of radioactive phosphate from ATP into appropriate polypeptide substrates. Recombinant protein kinases and kinase complexes were produced or obtained commercially. Assays were performed using 96-well plates and appropriate assay buffers (typically 25 mM β-glycerophosphate, 20 mM MOPS, 5 mM EGTA, 1 mM DTT, 1 mM […], pH 7.4), into which were added 2-4 μg of active enzyme with appropriate substrates. The reactions were initiated by addition of Mg/ATP mix (15 mM MgCl2+100 μM ATP with 30-50 kBq per well of [γ-^32P]-ATP) and mixtures incubated as required at 30° C. Reactions were stopped on ice, followed by filtration through p81 filterplates or GF/C filterplates (Whatman Polyfiltronics, Kent, UK). After washing 3 times with 75 mM aq orthophosphoric acid, plates were dried, scintillant added and incorporated radioactivity measured in a scintillation counter (TopCount, Packard Instruments, Pangbourne, Berks, UK). Compounds for kinase assay were made-up as 10 mM stocks in DMSO and diluted into 10% DMSO inrassay buffer.
# PLK-1 = PLK-1 (Homo sapiens, UniProt P53350); assay: Kinase assay PLK-1; assay type: biochemical; conditions: Table 2; read-out: Kinase Inhibition IC50 PLK-1
# Method: as §4
# Chain of CDK1/cyclin B (P06493 whole entry): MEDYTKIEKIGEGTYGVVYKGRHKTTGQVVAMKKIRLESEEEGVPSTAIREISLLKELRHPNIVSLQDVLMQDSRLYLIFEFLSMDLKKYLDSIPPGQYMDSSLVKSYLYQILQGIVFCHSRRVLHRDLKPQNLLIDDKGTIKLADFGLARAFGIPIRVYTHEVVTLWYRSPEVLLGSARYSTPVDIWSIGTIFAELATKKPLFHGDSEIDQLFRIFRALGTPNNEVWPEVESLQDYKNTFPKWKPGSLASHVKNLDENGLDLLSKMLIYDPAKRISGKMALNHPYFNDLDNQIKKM
# Chain of CDK1/cyclin B (P14635 whole entry partner): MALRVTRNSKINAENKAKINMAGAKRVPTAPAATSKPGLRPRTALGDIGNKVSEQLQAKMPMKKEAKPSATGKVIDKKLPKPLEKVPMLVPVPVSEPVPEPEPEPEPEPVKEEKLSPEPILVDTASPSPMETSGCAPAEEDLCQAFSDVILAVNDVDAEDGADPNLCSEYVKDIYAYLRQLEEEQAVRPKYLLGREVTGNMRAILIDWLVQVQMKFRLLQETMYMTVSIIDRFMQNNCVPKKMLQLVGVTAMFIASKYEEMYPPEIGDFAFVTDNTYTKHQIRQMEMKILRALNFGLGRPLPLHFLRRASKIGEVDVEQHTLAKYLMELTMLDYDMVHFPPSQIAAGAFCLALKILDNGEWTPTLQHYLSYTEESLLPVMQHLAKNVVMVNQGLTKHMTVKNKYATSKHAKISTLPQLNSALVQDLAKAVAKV
# Chain of PLK-1 (P53350 whole entry): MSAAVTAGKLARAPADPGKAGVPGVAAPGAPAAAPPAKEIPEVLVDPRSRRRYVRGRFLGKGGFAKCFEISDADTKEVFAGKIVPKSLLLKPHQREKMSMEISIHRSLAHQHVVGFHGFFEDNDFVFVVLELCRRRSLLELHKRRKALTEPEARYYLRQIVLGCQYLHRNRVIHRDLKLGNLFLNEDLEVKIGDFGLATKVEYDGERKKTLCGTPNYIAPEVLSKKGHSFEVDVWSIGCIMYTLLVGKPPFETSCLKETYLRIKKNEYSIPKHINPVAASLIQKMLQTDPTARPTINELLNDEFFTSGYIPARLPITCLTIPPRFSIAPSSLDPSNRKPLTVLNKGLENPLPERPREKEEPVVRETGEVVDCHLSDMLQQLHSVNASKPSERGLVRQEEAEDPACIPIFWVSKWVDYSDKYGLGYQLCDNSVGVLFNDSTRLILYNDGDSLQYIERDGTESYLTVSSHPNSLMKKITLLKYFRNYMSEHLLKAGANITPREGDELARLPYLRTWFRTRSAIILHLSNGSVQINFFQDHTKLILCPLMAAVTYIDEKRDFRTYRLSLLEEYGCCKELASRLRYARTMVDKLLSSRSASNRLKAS
# Chain of GSK-3β (P49841 whole entry): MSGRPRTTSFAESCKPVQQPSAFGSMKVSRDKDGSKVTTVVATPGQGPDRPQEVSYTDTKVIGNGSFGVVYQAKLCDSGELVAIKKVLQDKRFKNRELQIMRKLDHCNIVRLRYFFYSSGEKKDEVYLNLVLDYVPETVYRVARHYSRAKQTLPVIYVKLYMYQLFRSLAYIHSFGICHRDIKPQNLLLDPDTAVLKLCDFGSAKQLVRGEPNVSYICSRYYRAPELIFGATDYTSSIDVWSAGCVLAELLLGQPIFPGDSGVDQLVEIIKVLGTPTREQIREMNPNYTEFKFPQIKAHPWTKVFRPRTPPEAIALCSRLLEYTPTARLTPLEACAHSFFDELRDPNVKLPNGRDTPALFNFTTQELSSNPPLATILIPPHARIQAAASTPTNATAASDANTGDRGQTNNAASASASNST
# Chain of CDK4/cyclin D1 (P11802 whole entry): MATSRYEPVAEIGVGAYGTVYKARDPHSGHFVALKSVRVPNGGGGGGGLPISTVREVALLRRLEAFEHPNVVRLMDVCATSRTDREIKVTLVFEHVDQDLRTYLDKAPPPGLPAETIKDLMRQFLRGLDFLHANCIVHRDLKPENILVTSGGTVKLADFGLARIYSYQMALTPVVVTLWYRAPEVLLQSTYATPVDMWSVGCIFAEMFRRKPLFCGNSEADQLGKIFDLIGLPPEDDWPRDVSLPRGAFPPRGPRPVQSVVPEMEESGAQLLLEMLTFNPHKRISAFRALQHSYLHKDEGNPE
# Chain of CDK4/cyclin D1 (P24385 whole entry partner): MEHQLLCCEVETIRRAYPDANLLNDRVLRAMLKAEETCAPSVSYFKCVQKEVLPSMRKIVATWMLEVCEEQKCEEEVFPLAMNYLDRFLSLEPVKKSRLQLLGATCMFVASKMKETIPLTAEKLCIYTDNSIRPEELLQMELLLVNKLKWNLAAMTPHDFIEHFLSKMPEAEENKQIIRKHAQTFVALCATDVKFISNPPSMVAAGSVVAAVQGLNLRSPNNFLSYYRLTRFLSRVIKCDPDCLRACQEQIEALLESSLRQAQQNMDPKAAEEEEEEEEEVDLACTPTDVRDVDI
# Chain of CDK9/cyclin T1 (P50750 whole entry): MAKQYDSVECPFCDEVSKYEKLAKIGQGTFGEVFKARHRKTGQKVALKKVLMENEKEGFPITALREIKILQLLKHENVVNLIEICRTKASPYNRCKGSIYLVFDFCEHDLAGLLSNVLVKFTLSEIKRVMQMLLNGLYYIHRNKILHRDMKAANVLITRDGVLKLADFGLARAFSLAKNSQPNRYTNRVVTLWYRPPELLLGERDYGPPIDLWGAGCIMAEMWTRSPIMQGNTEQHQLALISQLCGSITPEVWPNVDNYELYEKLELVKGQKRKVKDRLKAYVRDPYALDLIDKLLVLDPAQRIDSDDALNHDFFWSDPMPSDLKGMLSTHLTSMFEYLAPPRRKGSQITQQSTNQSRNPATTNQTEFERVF
# Chain of CDK9/cyclin T1 (O60563 whole entry partner): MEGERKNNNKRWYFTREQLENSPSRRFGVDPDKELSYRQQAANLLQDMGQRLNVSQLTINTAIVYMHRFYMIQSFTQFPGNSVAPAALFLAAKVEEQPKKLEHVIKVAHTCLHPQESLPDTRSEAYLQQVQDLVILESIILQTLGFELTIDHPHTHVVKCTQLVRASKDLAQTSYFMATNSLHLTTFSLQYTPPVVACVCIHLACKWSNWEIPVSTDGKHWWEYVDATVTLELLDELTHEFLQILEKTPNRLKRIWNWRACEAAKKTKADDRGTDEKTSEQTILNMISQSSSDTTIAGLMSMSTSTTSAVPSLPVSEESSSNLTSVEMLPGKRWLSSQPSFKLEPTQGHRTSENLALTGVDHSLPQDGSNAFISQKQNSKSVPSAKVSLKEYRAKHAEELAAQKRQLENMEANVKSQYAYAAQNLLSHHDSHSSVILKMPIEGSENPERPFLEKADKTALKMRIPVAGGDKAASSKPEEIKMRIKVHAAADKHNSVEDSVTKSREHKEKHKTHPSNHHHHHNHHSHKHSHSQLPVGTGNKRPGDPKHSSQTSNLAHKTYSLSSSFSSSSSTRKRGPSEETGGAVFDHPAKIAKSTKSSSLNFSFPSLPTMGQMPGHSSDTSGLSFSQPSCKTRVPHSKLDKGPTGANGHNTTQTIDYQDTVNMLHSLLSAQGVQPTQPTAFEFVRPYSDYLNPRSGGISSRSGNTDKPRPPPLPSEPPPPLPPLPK
# Chain of CDK7/cyclin H (P50613 whole entry): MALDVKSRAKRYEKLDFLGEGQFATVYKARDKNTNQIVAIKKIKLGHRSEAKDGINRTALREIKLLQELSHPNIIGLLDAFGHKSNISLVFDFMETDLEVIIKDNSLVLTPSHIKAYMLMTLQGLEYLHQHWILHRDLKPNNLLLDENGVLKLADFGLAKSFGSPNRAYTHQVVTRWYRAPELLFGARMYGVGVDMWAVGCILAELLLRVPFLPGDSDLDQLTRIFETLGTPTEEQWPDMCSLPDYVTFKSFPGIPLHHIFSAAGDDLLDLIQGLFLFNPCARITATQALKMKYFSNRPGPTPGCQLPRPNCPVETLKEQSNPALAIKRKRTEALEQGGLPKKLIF
pIC50 (CDK9/cyclin T1),pIC50 (CDK2/cyclin A),melting point [°C],pIC50 (CDK7/cyclin H),pIC50 (CDK4/cyclin D1),pIC50 (CDK2/cyclin E),pIC50 (CDK1/cyclin B),pIC50 (GSK-3β),pIC50 (PLK-1),SMILES,pIC50 (HT29),pIC50 (Saos-2),pIC50 (A549)
8.74,6.05,217 to 219,4.89,6.02,6.41,5.47,–,–,"Cc1nc(C)c(-c2ccnc(Nc3ccc(NC(=O)CCl)cc3)n2)s1 [Compound 50, 2-Chloro-N-{4-[4-(2,4-dimethyl-thiazol-5-yl)-pyrimidin-2-ylamino]-phenyl}-acetamide]",6.80,6.80,6.80
7.00,6.51,–,6.23,6.89,7.10,6.13,5.68,4.74,"CCNc1nc(C)c(-c2ccnc(Nc3cccc(CNC(C)=O)c3)n2)s1 [Compound 64, N-{3-[4-(2-Ethylamino-4-methyl-thiazol-5-yl)-pyrimidin-2-ylamino]-benzyl}-acetamide]",6.39,6.47,6.72
6.33,6.96,216 to 218,5.59,7.07,6.85,6.15,5.66,–,"CNc1nc(C)c(-c2ccnc(Nc3ccc(CCO)cc3)n2)s1 [Compound 59, 2-{4-[4-(4-Methyl-2-methylamino-thiazol-5-yl)-pyrimidin-2-ylamino]-phenyl}-ethanol]",5.77,5.72,5.62
–,–,290 to 292,–,6.96,6.48,–,–,< 4.00,"CCNc1nc(C)c(-c2ccnc(Nc3cccc(CN)c3)n2)s1 [Compound 65, (3-Aminomethyl-phenyl)-[4-(2-ethylamino-4-methyl-thiazol-5-yl)-pyrimidin-2-yl]-amine]",5.32,6.19,5.49
4.77,4.17,229 to 231,6.07,7.66,6.22,4.74,< 4.00,–,"Cc1nc(N2CCOCC2)sc1-c1ccnc(Nc2ccc(N3CCOCC3)cc2)n1 [Compound 56, [4-(4-Methyl-2-morpholin-4-yl-thiazol-5-yl)-pyrimidin-2-yl]-(4-morpholin-4-yl-phenyl)-amine]",5.54,5.30,5.36
–,7.00,206 to 207,5.68,6.20,6.96,6.92,–,–,"CC(=O)NCc1cccc(Nc2nccc(-c3sc(C)nc3C)n2)c1 [Compound 66, N-{3-[4-(2,4-Dimethyl-thiazol-5-yl)-pyrimidin-2-ylamino]-benzyl}-acetamide]",–,–,–
6.40,5.85,–,6.09,5.52,6.72,5.51,5.92,4.62,"Cc1nc(NC(=O)CCN2CCN(C)CC2)sc1-c1ccnc(Nc2cccc([N+](=O)[O-])c2)n1 [Compound 23, N-{4-Methyl-5-[2-(3-nitro-phenylamino)-pyrimidin-4-yl]-thiazol-2-yl}-3-(4-methyl-piperazin-1-yl)-propionamide]",5.96,5.36,5.42
–,–,287 to 289,–,6.62,6.38,–,–,< 4.00,"CNc1nc(C)c(-c2ccnc(Nc3cccc(CN)c3)n2)s1 [Compound 67, (3-Aminomethyl-phenyl)-[4-(4-methyl-2-methylamino-thiazol-5-yl)-pyrimidin-2-yl]-amine]",4.85,5.96,4.85

# Continued, compound first:
SMILES,pIC50 (CDK9/cyclin T1),pIC50 (CDK2/cyclin A),melting point [°C],pIC50 (CDK7/cyclin H),pIC50 (CDK4/cyclin D1),pIC50 (CDK2/cyclin E),pIC50 (CDK1/cyclin B),pIC50 (GSK-3β),pIC50 (PLK-1),pIC50 (HT29),pIC50 (Saos-2),pIC50 (A549)
"Cc1nc(NC(=O)CCN2CCOCC2)sc1-c1ccnc(Nc2ccc(F)cc2)n1 [Compound 21, N-{5-[2-(4-Fluoro-phenylamino)-pyrimidin-4-yl]-4-methyl-thiazol-2-yl}-3-morpholin-4-yl-propionamide]",6.34,6.49,–,5.31,5.89,7.01,6.27,4.85,< 3.70,5.39,5.37,5.07
"Cc1nc(C)c(-c2ccnc(Nc3ccc(N4CCN(C)CC4)cc3)n2)s1 [Compound 12, [4-(2,4-Dimethyl-thiazol-5-yl)-pyrimidin-2-yl]-[4-(4-methyl-piperazin-1-yl)-phenyl]-amine]",6.55,6.00,–,5.96,6.72,5.74,5.38,4.28,4.26,6.13,6.37,6.15
"Cc1nc(C)c(-c2ccnc(Nc3ccc(N4CCN(CCCO)CC4)cc3)n2)s1 [Compound 8, 3-(4-{4-[4-(2,4-Dimethyl-thiazol-5-yl)-pyrimidin-2-ylamino]-phenyl}-piperazin-1-yl)-propan-1-ol]",6.29,5.96,–,6.01,6.44,5.92,5.31,4.41,< 3.82,6.10,6.42,6.21
"Cc1nc(C)c(-c2ccnc(Nc3ccc(N4CCNCC4)cc3)n2)s1 [Compound 6, [4-(2,4-Dimethyl-thiazol-5-yl)-pyrimidin-2-yl]-(4-piperazin-1-yl-phenyl)-amine]",6.00,6.07,–,5.89,6.41,6.15,5.52,5.28,4.89,5.96,6.11,5.89
"CNc1nc(C)c(-c2ccnc(Nc3cccc(CNC(C)=O)c3)n2)s1 [Compound 63, N-{3-[4-(4-Methyl-2-methylamino-thiazol-5-yl)-pyrimidin-2-ylamino]-benzyl}-acetamide]",5.57,4.92,253 to 255,4.70,5.11,–,4.32,5.06,4.34,5.85,5.92,6.01
